In ChEMBL document CHEMBL4418299, “Compounds useful as csf1 modulators” (2016):

How the values were obtained:
[1] = molecular target: Vascular endothelial growth factor receptor 2 (Homo sapiens, UniProt P35968); assay: Displacement of kinase tracer 236 from recombinant human His-tagged KDR cytoplasmic domain (789 to 1356 residues) expressed in baculovirus-infected insect cells measured after 5 hrs by TR-FRET based LanthaScreen assay
[2] = molecular target: Macrophage colony-stimulating factor 1 receptor (Homo sapiens, UniProt P07333); assay: Displacement of kinase tracer 236 from recombinant human His-tagged CSF1R cytoplasmic domain (538 to 910 residues) expressed in baculovirus-infected insect cells measured after 5 hrs by TR-FRET based LanthaScreen assay
Macrophage colony-stimulating factor 1 receptor, sequence (P07333 whole entry, the tested form may be a part): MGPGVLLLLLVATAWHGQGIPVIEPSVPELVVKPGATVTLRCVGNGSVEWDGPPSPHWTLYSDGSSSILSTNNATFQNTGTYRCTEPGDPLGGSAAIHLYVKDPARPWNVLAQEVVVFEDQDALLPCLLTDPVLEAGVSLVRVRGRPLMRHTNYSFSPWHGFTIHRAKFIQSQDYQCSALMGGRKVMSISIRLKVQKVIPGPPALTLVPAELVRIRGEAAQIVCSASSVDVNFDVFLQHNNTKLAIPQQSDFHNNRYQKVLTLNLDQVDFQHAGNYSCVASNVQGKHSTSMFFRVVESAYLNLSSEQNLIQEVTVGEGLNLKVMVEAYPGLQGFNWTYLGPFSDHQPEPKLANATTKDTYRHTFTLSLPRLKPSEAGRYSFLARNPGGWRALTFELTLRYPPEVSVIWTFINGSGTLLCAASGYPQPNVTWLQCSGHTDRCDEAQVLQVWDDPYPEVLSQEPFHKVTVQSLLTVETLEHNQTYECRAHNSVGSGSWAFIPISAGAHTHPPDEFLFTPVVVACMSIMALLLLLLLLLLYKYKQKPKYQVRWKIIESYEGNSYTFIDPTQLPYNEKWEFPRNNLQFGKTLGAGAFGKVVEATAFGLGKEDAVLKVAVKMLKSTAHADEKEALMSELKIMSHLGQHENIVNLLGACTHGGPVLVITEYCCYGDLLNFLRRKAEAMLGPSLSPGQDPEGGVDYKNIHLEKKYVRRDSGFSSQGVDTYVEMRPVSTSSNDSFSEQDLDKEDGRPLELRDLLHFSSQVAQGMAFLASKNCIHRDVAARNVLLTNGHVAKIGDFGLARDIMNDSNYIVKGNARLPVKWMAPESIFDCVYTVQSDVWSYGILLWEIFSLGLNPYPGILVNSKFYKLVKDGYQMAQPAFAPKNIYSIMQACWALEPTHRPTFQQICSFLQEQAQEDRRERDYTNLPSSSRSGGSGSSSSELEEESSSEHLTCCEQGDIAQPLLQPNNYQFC

Vascular endothelial growth factor receptor 2, sequence (P35968 whole entry, the tested form may be a part): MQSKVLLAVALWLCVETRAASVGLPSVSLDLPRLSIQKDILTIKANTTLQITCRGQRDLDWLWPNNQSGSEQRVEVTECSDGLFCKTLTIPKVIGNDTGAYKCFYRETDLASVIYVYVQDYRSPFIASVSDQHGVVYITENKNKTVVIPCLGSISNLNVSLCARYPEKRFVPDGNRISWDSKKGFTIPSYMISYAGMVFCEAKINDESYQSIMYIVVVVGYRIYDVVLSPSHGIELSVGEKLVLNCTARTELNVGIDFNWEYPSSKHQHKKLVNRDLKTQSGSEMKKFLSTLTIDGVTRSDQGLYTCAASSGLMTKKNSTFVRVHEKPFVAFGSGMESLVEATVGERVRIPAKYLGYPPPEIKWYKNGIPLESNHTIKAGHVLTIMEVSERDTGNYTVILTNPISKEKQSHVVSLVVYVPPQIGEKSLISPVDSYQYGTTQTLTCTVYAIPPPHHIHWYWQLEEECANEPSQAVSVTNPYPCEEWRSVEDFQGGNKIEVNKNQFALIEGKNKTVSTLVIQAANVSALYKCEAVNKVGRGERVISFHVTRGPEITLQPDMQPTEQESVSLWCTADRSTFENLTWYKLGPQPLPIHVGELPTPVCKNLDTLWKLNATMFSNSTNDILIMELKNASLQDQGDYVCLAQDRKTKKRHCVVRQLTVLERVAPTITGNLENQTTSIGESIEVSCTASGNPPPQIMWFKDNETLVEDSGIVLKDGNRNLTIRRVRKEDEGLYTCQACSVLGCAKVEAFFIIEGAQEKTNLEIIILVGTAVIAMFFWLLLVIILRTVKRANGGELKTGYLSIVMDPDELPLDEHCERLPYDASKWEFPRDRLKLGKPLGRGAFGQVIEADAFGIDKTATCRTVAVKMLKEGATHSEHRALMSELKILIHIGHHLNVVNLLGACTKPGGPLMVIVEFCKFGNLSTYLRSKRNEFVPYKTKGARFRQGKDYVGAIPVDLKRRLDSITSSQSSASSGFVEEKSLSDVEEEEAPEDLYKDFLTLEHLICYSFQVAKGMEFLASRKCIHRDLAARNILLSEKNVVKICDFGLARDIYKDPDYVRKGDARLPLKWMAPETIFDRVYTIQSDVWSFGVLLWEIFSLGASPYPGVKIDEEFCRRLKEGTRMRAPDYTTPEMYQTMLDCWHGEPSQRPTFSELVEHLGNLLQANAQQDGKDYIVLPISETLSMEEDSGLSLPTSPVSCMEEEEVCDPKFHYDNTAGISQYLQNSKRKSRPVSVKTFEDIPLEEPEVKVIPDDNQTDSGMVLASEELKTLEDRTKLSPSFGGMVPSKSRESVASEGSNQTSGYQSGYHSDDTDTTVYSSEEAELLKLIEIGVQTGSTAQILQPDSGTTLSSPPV

| Structure (SMILES) | IC50 [1] | IC50 [2] |
| --- | --- | --- |
| CC(C)c1cn(C)c2ccc(CC(=O)Nc3ccc(-n4c5c(c6ncnc(N)c64)CCC5)cc3)cc12 | > 200 nM | 10 to 200 nM |
| Nc1ncnc2c3c(n(-c4ccc(NC(=O)Cc5cc(C(F)(F)F)ccc5F)c(C(F)(F)F)c4)c12)CCC3 |  | > 200 nM |
| Nc1ncnc2c3c(n(-c4ccc(NC(=O)Cc5ccc(Cl)cc5F)cc4)c12)CCC3 | > 200 nM | < 10 nM |
| Nc1ncnc2c3c(n(-c4ccc(NC(=O)Cc5ccnc(C(F)(F)F)c5)cc4)c12)CCC3 | > 200 nM | < 10 nM |
| COc1ccc(CC(=O)Nc2ccc(-n3c4c(c5ncnc(N)c53)CCC4)cc2OC)c(F)c1 | > 200 nM | < 10 nM |
| COc1cc(-n2c3c(c4ncnc(N)c42)COC3)ccc1NC(=O)Cc1ccc(OC(F)(F)F)cc1 | > 200 nM | 6 nM |
| COc1cc(-n2c3c(c4ncnc(N)c42)CCC3)ccc1NC(=O)Cc1ccc2c(c1)CCN2CC(F)(F)F | > 200 nM | < 10 nM |
| Cn1ccc2cc(CC(=O)Nc3ccc(-n4c5c(c6ncnc(N)c64)COC5)cc3)ccc21 | > 200 nM | 10 to 200 nM |
| Nc1ncnc2c3c(n(-c4ccc(NC(=O)Cc5ccc6c(c5)CCN6CC(F)(F)F)cc4)c12)CCC3 | > 200 nM | < 10 nM |
| COc1cc(CC(=O)Nc2ccc(-n3c4c(c5ncnc(N)c53)CCC4)cc2)ccc1F | > 200 nM | 10 to 200 nM |
| COc1ccc(CC(=O)Nc2ccc(-n3c4c(c5ncnc(N)c53)CCC4)cc2)c(OC)c1 | > 200 nM | < 10 nM |
| Cc1cc(CC(=O)Nc2ccc(-n3c4c(c5ncnc(N)c53)CCC4)cc2)on1 | > 200 nM | 10 to 200 nM |
| COc1cccc(CC(=O)Nc2ccc(-n3c4c(c5ncnc(N)c53)CCC4)cc2)c1 | > 200 nM | < 10 nM |
| Nc1ncnc2c3c(n(-c4ccc(NC(=O)Cc5ccc(OC(F)(F)F)cc5)cc4)c12)COC3 | > 200 nM | < 10 nM |
| COc1cc(CC(=O)Nc2ccc(-n3c4c(c5ncnc(N)c53)CCC4)cc2)cc(OC)c1 | > 200 nM | > 200 nM |
| Nc1ncnc2c3c(n(-c4ccc(NC(=O)Cc5ccc(Cl)cc5)cc4)c12)CCC3 | > 200 nM | < 10 nM |
| Nc1ncnc2c3c(n(-c4ccc(CC(=O)Nc5ccccc5)cc4)c12)CCC3 | > 200 nM | 10 to 200 nM |
| Nc1ncnc2c3c(n(-c4ccc(NC(=O)Cc5cccc(O)c5)cc4)c12)CCC3 | > 200 nM |  |
| Nc1ncnc2c3c(n(-c4ccc(NC(=O)CC5CCNCC5)cc4)c12)CCC3 | > 200 nM | > 200 nM |
| Cc1ccc(CC(=O)Nc2ccc(-n3c4c(c5ncnc(N)c53)COC4)cc2)c(F)c1 | > 200 nM | 10 to 200 nM |
| COc1ccc(CC(=O)Nc2ccc(-n3c4c(c5ncnc(N)c53)CCC4)cc2)cc1C | > 200 nM | < 10 nM |
| COc1ccc(CC(=O)Nc2ccc(-n3c4c(c5ncnc(N)c53)COC4)cc2)cc1C(F)(F)F | > 200 nM | < 10 nM |
| Cc1ccc(CC(=O)Nc2ccc(-n3c4c(c5ncnc(N)c53)CCC4)cc2)c(F)c1 | 10 to 200 nM | < 10 nM |
| Cc1ccc(CC(=O)Nc2ccc(-n3c4c(c5ncnc(N)c53)CCC4)cc2)cc1F | > 200 nM | < 10 nM |

| Structure (SMILES) | IC50 [1] | IC50 [2] |
| --- | --- | --- |
| Nc1ncnc2c3c(n(-c4ccc(NC(=O)Cc5ccc(F)cc5C(F)(F)F)cc4)c12)CCC3 | > 200 nM | < 10 nM |
| COc1ccc(CC(=O)Nc2ccc(-n3c4c(c5ncnc(N)c53)CCC4)cc2)cc1C(F)(F)F | > 200 nM | < 10 nM |
| Nc1ncnc2c3c(n(-c4ccc(NC(=O)Cc5ccc(Cl)c(C(F)(F)F)c5)cc4)c12)COC3 | > 200 nM | < 10 nM |
| Nc1ncnc2c3c(n(-c4ccc(NC(=O)Cc5cccc(OC(F)F)c5)cc4)c12)CCC3 | > 200 nM | 10 to 200 nM |
| COc1cc(-n2c3c(c4ncnc(N)c42)CCC3)ccc1NC(=O)Cc1ccc(OC(F)(F)F)cc1 | > 200 nM | < 10 nM |
| Cc1ccc(F)c(CC(=O)Nc2ccc(-n3c4c(c5ncnc(N)c53)CCC4)cc2)c1 | > 200 nM | < 10 nM |
| Nc1ncnc2c3c(n(-c4ccc(NC(=O)Cc5ccc(C(F)(F)F)nc5)cc4)c12)CCC3 | > 200 nM | < 10 nM |
| Nc1ncnc2c3c(n(-c4ccc(NC(=O)Cc5ccccc5)cc4)c12)CCC3 | > 200 nM | 10 to 200 nM |
| COc1cc(F)c(CC(=O)Nc2ccc(-n3c4c(c5ncnc(N)c53)CCC4)cc2)c(F)c1 | 10 to 200 nM | < 10 nM |
| COc1ccc(CC(=O)Nc2ccc(-n3c4c(c5ncnc(N)c53)CCC4)cc2)cc1 | > 200 nM | < 10 nM |
| Nc1ncnc2c3c(n(-c4ccc(NC(=O)Cc5ccc(Cl)c(Cl)c5)cc4)c12)CCC3 | > 200 nM | < 10 nM |
| COc1ccc(CC(=O)Nc2ccc(-n3c4c(c5ncnc(N)c53)CCC4)cc2)nc1 | > 200 nM | 10 to 200 nM |
| COc1cc(CC(=O)Nc2ccc(-n3c4c(c5ncnc(N)c53)COC4)cc2)ccc1C | > 200 nM | 10 to 200 nM |
| Nc1ncnc2c3c(n(-c4ccc(NC(=O)Cc5ccc6c(c5)CCC6)cc4)c12)CCC3 | > 200 nM | < 10 nM |
| COc1cc(-n2c3c(c4ncnc(N)c42)CCC3)ccc1NC(=O)Cc1ccc(OC)c(C(F)(F)F)c1 | > 200 nM | 10 to 200 nM |
| Nc1ncnc2c3c(n(-c4ccc(NC(=O)Cc5cccc(Cl)c5)cc4)c12)CCC3 | > 200 nM | < 10 nM |
| COc1ccc(NC(=O)Cc2ccc(-n3c4c(c5ncnc(N)c53)CCC4)cc2OC)nn1 |  | < 10 nM |
| Nc1ncnc2c3c(n(-c4ccc(NC(=O)CCc5c[nH]c6ccccc56)cc4)c12)CCC3 | > 200 nM | > 200 nM |
| Nc1ncnc2c3c(n(-c4ccc(NC(=O)c5c[nH]c6ccccc56)cc4)c12)CCC3 | > 200 nM | > 200 nM |
| Nc1ncnc2c3c(n(-c4ccc(NC(=O)Cc5cc(C(F)(F)F)ccc5F)c(F)c4)c12)COC3 | > 200 nM | 10 to 200 nM |
| COc1ccc(CC(=O)Nc2ccc(-n3c4c(c5ncnc(N)c53)CCC4)cc2F)c(F)c1 | > 200 nM | 10 to 200 nM |
| COc1ccc(CC(=O)Nc2ccc(-n3c4c(c5ncnc(N)c53)CCC4)cc2)cc1Br | < 10 nM | < 10 nM |
| Nc1ncnc2c3c(n(-c4ccc(NC(=O)Cc5cc(C(F)(F)F)ccc5F)c(F)c4)c12)CCC3 | > 200 nM | 10 to 200 nM |

Second part, the compound after the results:

| IC50 [1] | IC50 [2] | Structure (SMILES) |
| --- | --- | --- |
| > 200 nM | < 10 nM | Nc1ncnc2c3c(n(-c4ccc(NC(=O)Cc5cc(C(F)(F)F)ccc5F)cc4)c12)CCC3 |
| > 200 nM | < 10 nM | COc1cc(CC(=O)Nc2ccc(-n3c4c(c5ncnc(N)c53)CCC4)cc2)ccc1C |
| > 200 nM | 10 to 200 nM | Nc1ncnc2c3c(n(-c4ccc(NC(=O)Cc5ccc(Cl)nn5)cc4)c12)CCC3 |
| > 200 nM | < 10 nM | Nc1ncnc2c3c(n(-c4ccc(NC(=O)Cc5ccc(F)cc5)cc4)c12)CCC3 |
| > 200 nM | 4 nM | Cn1ccc2cc(CC(=O)Nc3ccc(-n4c5c(c6ncnc(N)c64)CCC5)cc3)ccc21 |
| > 200 nM | < 10 nM | Nc1ncnc2c3c(n(-c4ccc(NC(=O)Cc5cccc(OC(F)(F)F)c5)cc4)c12)CCC3 |
| > 200 nM | 10 to 200 nM | CC(C(=O)Nc1ccc(-n2c3c(c4ncnc(N)c42)CCC3)cc1)c1ccccc1 (stereo not drawn) |
| > 200 nM | < 10 nM | Nc1ncnc2c3c(n(-c4ccc(NC(=O)Cc5cccc(Cl)c5F)cc4)c12)CCC3 |
| > 200 nM | < 10 nM | Nc1ncnc2c3c(n(-c4ccc(NC(=O)Cc5cc(Cl)ccc5F)cc4)c12)CCC3 |
| > 200 nM | 10 to 200 nM | Nc1ncnc2c3c(n(-c4ccc(NC(=O)Cc5nc6ccccc6s5)cc4)c12)CCC3 |
| > 200 nM | 10 to 200 nM | COc1ccc(CC(=O)Nc2ccc(-n3c4c(c5ncnc(N)c53)CCC4)cc2)cc1N(C)C |
|  | < 10 nM | COc1cc(-n2c3c(c4ncnc(N)c42)CCC3)ccc1NC(=O)Cc1ccc(C2(O)COC2)cc1 |
| > 200 nM | 10 to 200 nM | Nc1ncnc2c3c(n(-c4ccc(NC(=O)Cc5ccc(C(F)(F)F)nn5)cc4)c12)CCC3 |
| > 200 nM | 10 to 200 nM | Nc1ncnc2c3c(n(-c4ccc(NC(=O)Cc5cc(C(F)(F)F)ccn5)cc4)c12)CCC3 |
| > 200 nM |  | Nc1ncnc2c3c(n(-c4ccc(NC(=O)Cc5ccc(OC(F)(F)F)cc5)cc4)c12)CCC3 |
| > 200 nM | < 10 nM | COc1cc(-n2c3c(c4ncnc(N)c42)CCC3)ccc1NC(=O)Cc1cc(C)ccc1F |
| > 200 nM | 10 to 200 nM | Nc1ncnc2c3c(n(-c4ccc(CC(=O)Nc5cc(C(F)(F)F)ccc5F)cc4)c12)COC3 |
| > 200 nM | < 10 nM | COc1ccc(CC(=O)Nc2ccc(-n3c4c(c5ncnc(N)c53)CCC4)cc2)cn1 |
| > 200 nM | < 10 nM | COc1ccc(CC(=O)Nc2ccc(-n3c4c(c5ncnc(N)c53)CCC4)cc2)cc1F |
| > 200 nM | < 10 nM | COc1ccc(CC(=O)Nc2ccc(-n3c4c(c5ncnc(N)c53)CCC4)cc2)c(F)c1 |
| 10 to 200 nM | < 10 nM | Nc1ncnc2c3c(n(-c4ccc(CC(=O)Nc5cc(C(F)(F)F)ccc5F)cc4)c12)CCC3 |
|  | > 200 nM | COc1cc(-n2c3c(c4ncnc(N)c42)CCC3)ccc1CC(=O)Nc1ccnn1C |
|  | 10 to 200 nM | COc1cc(-n2c3c(c4ncnc(N)c42)CCC3)ccc1CC(=O)Nc1cnn(C(F)F)c1 |
| > 200 nM | > 200 nM | Nc1ncnc2c3c(n(-c4ccc(NC(=O)Cc5ccccc5)c(F)c4)c12)COC3 |
| > 200 nM | 10 to 200 nM | Cc1ccc(F)c(CC(=O)Nc2ccc(-n3c4c(c5ncnc(N)c53)COC4)cc2)c1 |
| > 200 nM | < 10 nM | Nc1ncnc2c3c(n(-c4ccc(NC(=O)Cc5ccc(F)cc5Br)cc4)c12)CCC3 |
| > 200 nM | < 10 nM | COc1ccc(CC(=O)Nc2ccc(-n3c4c(c5ncnc(N)c53)COC4)cc2)cc1C |
| > 200 nM | 47 nM | Nc1ncnc2c3c(n(-c4ccc(NC(=O)Cc5ccccc5)cc4F)c12)CCC3 |
